For 33 compounds, EC50 and CC50 results are on record in patent US12240857B2 (priority 2017, dated 2025).

Series [1] relates to EBOV mucin-domain-deleted glycoprotein pseudotyped VSV. Briefly: microbe, parasite or virus in culture. Format: cell-based, Zaire ebolavirus. The settings on record: Zaire ebolavirus, Vero, read-out: EC50 EBOV.
The subject of series [2] is BDBV mucin-domain-deleted glycoprotein pseudotyped VSV. Briefly: microbe, parasite or virus in culture. Format: cell-based, Bundibugyo ebolavirus. The settings on record: Vesicular stomatitis virus, Vero, read-out: EC50 BDBV.
The nature of series [3]: in vitro. The settings on record: African green monkey, CC50.

Where two headings read alike, the source gives them in different places.

As for `CC1CCN(C[C@@H](O)COCC23CC4CC(C2)CC(c2ccccc2)(C4)C3)CC1` [Example C11, (2R)-1-(4-methylpiperidin-1-yl)-3-[(3-phenyladamantan-1-yl)methoxy]propan-2-ol], the figures for the concentration for a half-maximal effect (EC50) in series [1] and in series [2] were 0.18 µM and 0.11 µM, respectively. In series [3], this compound showed a CC50 of 3.6 µM.

`CC1CCN(C[C@H](O)COCCC23CC4CC(C2)CC(c2ccccc2)(C4)C3)CC1` [Example C12, (2S)-1-(4-methylpiperidin-1-yl)-3-[2-(3-phenyladamantan-1-yl)ethoxy]propan-2-ol]: the 50% effective concentration (EC50) was 0.27 µM in series [1] and 0.19 µM in series [2]. Besides, the CC50 in series [3] worked out at 1.2 µM.

For `CC1CCN(C[C@@H](O)COCCC23CC4CC(C2)CC(c2ccccc2)(C4)C3)CC1` [Example C13, (2R)-1-(4-methylpiperidin-1-yl)-3-[2-(3-phenyladamantan-1-yl)ethoxy]propan-2-ol], the concentration giving a half-maximal response (EC50) worked out at 0.17 µM in series [1] and 0.11 µM in series [2]. Moreover, the CC50 in series [3] is 3.6 µM.

On to `O=C(NC1CCNCC1)c1ccc(NCC23CC4CC(C2)CC(c2ccccc2)(C4)C3)nc1` [Example C14, 6-{[(3-phenyladamantan-1-yl)methyl]amino}-N-(piperidin-4-yl)pyridine-3-carboxamide], for which the 50% effective concentration (EC50) in series [1] was over 1 µM; in series [2] it was 1 µM. The compound also had a CC50 in series [3] of 3.9 µM.

As to `c1ccc(C23CC4CC(CC(CNc5ccc(CN6CCCCC6)cn5)(C4)C2)C3)cc1` [Example C15, N-[(3-phenyladamantan-1-yl)methyl]-5-(piperidin-1-ylmethyl)pyridin-2-amine], the EC50 is over 1 µM in series [1] and 0.98 µM in series [2]. In series [3], this compound had a CC50 of 3.9 µM.

As for `NCc1ccc(NCC23CC4CC(C2)CC(c2ccccc2)(C4)C3)nc1` [Example C16, 5-(aminomethyl)-N-[(3-phenyladamantan-1-yl)methyl]pyridin-2-amine], the EC50 turned out to be 0.98 µM in series [1] and 0.75 µM in series [2]. The CC50 in series [3] was 8 µM.

In the case of `CC1CCN(C[C@H](O)COc2ccc(C34CC5CC(CC(c6ccccc6)(C5)C3)C4)cc2)CC1` [Example C18, (2S)-1-(4-methylpiperidin-1-yl)-3-[4-(3-phenyladamantan-1-yl)phenoxy]propan-2-ol], the EC50 is 0.08 µM in series [1] and 0.26 µM in series [2]. The compound also gave a CC50 in series [3] of 2.7 µM.

As to `CCC12CC3CC(C1)CC(c1ccc(OC[C@@H](O)CN4CCC(C)CC4)cc1)(C3)C2` [Example C19, (S)-1-(4-(−3-ethyladamantan-1-yl)phenoxy)-3-(4-methylpiperidin-1-yl)propan-2-ol], the EC50 stood at 0.11 µM in series [1] and 0.2 µM in series [2]. This compound showed a CC50 in series [3] of over 100 µM.

On to `Cc1ccc(C23CC4CC(CC(CN5CCCCC5)(C4)C2)C3)cc1` [Example D1], for which the EC50 in series [1] (24 h) was 1.3 µM; in series [2] (24 h) it was 0.61 µM. This compound returned a CC50 in series [3] of over 10 µM.

Turning to `COc1ccc(CNCCC23CC4CC(CC(C4)C2)C3)cc1` [Example D4, [2-(adamantan-1-yl)ethyl][(4-methoxyphenyl)methyl]amine], the concentration for a half-maximal effect (EC50) worked out at 2.19 µM in series [1] (24 h) and 2.72 µM in series [2] (24 h). The compound further displayed a CC50 in series [3] of over 10 µM.

Regarding `CCOCCN1CCN(CC23CC4CC(CC(C4)C2)C3)CC1` [Example D5, 1-(adamantan-1-ylmethyl)-4-(2-ethoxyethyl)piperazine], the EC50 in series [1] (24 h) was 4.6 µM; in series [2] (24 h) it was 1.8 µM. The same compound registered a CC50 in series [3] of over 10 µM.

Consider `CC1CCN(CC(O)COCCC23CC4CC(CC(C4)C2)C3)CC1` (stereo not drawn) [Example D10, 1-[2-(adamantan-1-yl)ethoxy]-3-(4-methylpiperidin-1-yl) propan-2-ol], for which the EC50 in series [1] (24 h) worked out at 0.32 µM; in series [2] (24 h), 0.14 µM. Besides, the CC50 in series [3] worked out at 15.5 µM.

On to `CC1CCCCN1CC(O)COCCC12CC3CC(CC(C3)C1)C2` (stereo not drawn) [Example D11, 1-[2-(adamantan-1-yl)ethoxy]-3-(2-methylpiperidin-1-yl)propan-2-ol], for which the concentration giving a half-maximal response (EC50) in series [1] (24 h) worked out at 0.44 µM; in series [2] (24 h), 0.19 µM. The CC50 in series [3] is 7.5 µM.

Take `CCN(CC(O)COCCC12CC3CC(CC(C3)C1)C2)C1CCCCC1` (stereo not drawn) [Example D12, N-{3-[2-(adamantan-1-yl)ethoxy]-2-hydroxypropyl}-N-ethylcyclo hexanamine]: the EC50 worked out at 0.61 µM in series [1] (24 h) and 0.49 µM in series [2] (24 h). In series [3], this compound displayed a CC50 of over 3 µM.

For `CC(C)(C)NCC(O)COCCC12CC3CC(CC(C3)C1)C2` (stereo not drawn) [Example D13, {3-[2-(adamantan-1-yl)ethoxy]-2-hydroxypropyl}(tert-butyl)amine], the concentration for a half-maximal effect (EC50) in series [1] (24 h) is 0.63 µM; in series [2] (24 h), 0.67 µM. This compound also displayed a CC50 in series [3] of over 10 µM.

As to `OC(COCCC12CC3CC(CC(C3)C1)C2)CN1CCOCC1` (stereo not drawn) [Example D16, 1-[2-(adamantan-1-yl)ethoxy]-3-(morpholin-4-yl)propan-2-ol], the figures for the 50% effective concentration (EC50) in series [1] (24 h) and in series [2] (24 h) were 3.8 µM and 3.2 µM, respectively. In series [3], this compound returned a CC50 of over 10 µM.

Take `CC1CCN(C[C@H](O)COc2ccc(C34CC5CC(CC(C5)C3)C4)cc2)CC1` [Example D22, (2S)-1[4-(adamantan-1-yl)phenoxy]-3-(4-methylpiperidin-1-yl)propan-2-ol]: the concentration for a half-maximal effect (EC50) was found to be 0.052 µM in series [1] (24 h) and 0.085 µM in series [2] (24 h). In series [3], this compound returned a CC50 of 8.5 µM.

As for `CC1CCN(C[C@@H](O)COc2ccc(C34CC5CC(CC(C5)C3)C4)cc2)CC1` [Example D23, (2R)-1-[4-(adamantan-1-yl)phenoxy]-3-(4-methylpiperidin-1-yl)propan-2-ol], the results for the EC50 in series [1] (24 h) and in series [2] (24 h) were 0.06 µM and 0.077 µM, respectively. The CC50 in series [3] is 3.9 µM.

Consider `CCN1CCN(CC(O)COc2ccc(C34CC5CC(CC(C5)C3)C4)cc2)CC1` (stereo not drawn) [Example D25, 1-[4-(adamantan-1-yl)phenoxy]-3-(4-ethylpiperazin-1-yl)propan-2-ol], for which the EC50 came out at 0.09 µM in series [1] (24 h) and 0.24 µM in series [2] (24 h). Also, the CC50 in series [3] is 3.1 µM.

Consider `CN1CCN(C[C@H](O)COc2ccc(C34CC5CC(CC(C5)C3)C4)cc2)CC1` [Example D27], for which the results for the EC50 in series [1] (24 h) and in series [2] (24 h) were 0.13 µM and 0.19 µM, respectively. The CC50 in series [3] came to 3.5 µM.

Consider `CN1CCN(CC(O)COc2ccc(C34CC5CC(CC(C5)C3)C4)cc2)CC1` (stereo not drawn) [Example D28, 1-[4-(adamantan-1-yl)phenoxy]-3-(4-methylpiperazin-1-yl)propan-2-ol], for which the half-maximal effective concentration (EC50) in series [1] (24 h) is 0.15 µM; in series [2] (24 h), 0.21 µM. For the same compound, the CC50 in series [3] turned out to be 4.2 µM.

As for `NCCOc1ccc(C23CC4CC(CC(C4)C2)C3)cc1` [Example D34, 1-[4-(2-aminoethoxy)phenyl] adamantane], the EC50 is 0.43 µM in series [1] (24 h) and 1.16 µM in series [2] (24 h). The compound also had a CC50 in series [3] of 3.7 µM.

On to `Nc1ccc(C23CC4CC(CC(C4)C2)C3)cc1` [Example D36, 4-(adamantan-1-yl)aniline], for which the concentration giving a half-maximal response (EC50) in series [1] (24 h) amounted to 4.2 µM; in series [2] (24 h) it was 6.2 µM. In series [3], the CC50 is over 10 µM.

With `CC12CC3CC(C)(C1)CC(c1ccc(OC[C@@H](O)CN4CCCCC4)cc1)(C3)C2` [Example D39, (2S)-1-[4-(3,5-dimethyladamantan-1-yl)phenoxy]-3-(piperidin-1-yl) propan-2-ol], the results for the EC50 in series [1] (24 h) and in series [2] (24 h) were 0.12 µM and 0.25 µM, respectively. Moreover, in series [3], the CC50 is 3.2 µM.

For the compound `CC1CCN(C[C@H](O)COc2ccc(C34CC5CC(C)(CC(C)(C5)C3)C4)cc2)CC1` [Example D40, (2S)-1-[4-(3,5-dimethyladamantan-1-yl)phenoxy]-3-(4-methylpiperidin-1-yl)propan-2-ol], the EC50 in series [1] (24 h) stood at 0.19 µM; in series [2] (24 h), 0.46 µM. Moreover, in series [3], the CC50 was 2.5 µM.

As to `O=C(NCCC12CC3CC(CC(C3)C1)C2)c1ccc(CN2CCOCC2)cc1` [Example D41, N-[2-(adamantan-1-yl)ethyl]-4-(morpholin-4-ylmethyl)benzamide], the EC50 came to 2.3 µM in series [1] (24 h) and 9.7 µM in series [2] (24 h). In series [3], this compound registered a CC50 of over 3 µM.

Regarding `CC(NC(=O)Cn1ccc(C(F)(F)F)n1)C12CC3CC(CC(C3)C1)C2` (stereo not drawn) [Example D44, N[1-(adamantan-1-yl)ethyl]-2-[3-(trifluoromethyl)-1H-pyrazol-1-yl] acetamide], the EC50 was 5.8 µM in series [1] (24 h) and 2.7 µM in series [2] (24 h). In series [3], this compound came in with a CC50 of over 10 µM.

For the compound `CC(NC(=O)NCC(C)(C)N1CCOCC1)C12CC3CC(CC(C3)C1)C2` (stereo not drawn) [Example D45, 1-[1-(adamantan-1-yl)ethyl]-3-[2-methyl-2-(morpholin-4-yl)propyl]urea], the EC50 in series [1] (24 h) is 6.5 µM; in series [2] (24 h), 4.6 µM. Also, in series [3], the CC50 is over 10 µM.

Consider `CN(C)C1CCCN(C(=O)NCC23CC4CC(CC(C4)C2)C3)C1` (stereo not drawn) [Example D46, N-(adamantan-1-ylmethyl)-3-(dimethylamino)piperidine-1-carboxamide], for which the EC50 in series [1] (24 h) came to 6.7 µM; in series [2] (24 h), 4.3 µM. In series [3], the CC50 was over 10 µM.

Take `CC(NC(=O)Cn1nnc(-c2ccco2)n1)C12CC3CC(CC(C3)C1)C2` (stereo not drawn) [Example D47, N-[1-(adamantan-1-yl)ethyl]-2-[5-(furan-2-yl)-2H-1,2,3,4-tetrazol-2-yl]acetamide]: the concentration for a half-maximal effect (EC50) came out at 9.3 µM in series [1] (24 h) and 5.4 µM in series [2] (24 h). This compound registered a CC50 in series [3] of over 10 µM.

For the compound `O=C(NC1CCNCC1)NC12CC3CC(C1)CC(c1ccccc1)(C3)C2` [Example E1, 3-(3-phenyladamantan-1-yl)-1-(piperidin-4-yl)urea], the EC50 in series [1] is over 1 µM; in series [2] it was 0.77 µM. Besides, the CC50 in series [3] amounted to 18.3 µM.

In the case of `N[C@H]1CC[C@H](NC(=O)NC23CC4CC(C2)CC(c2ccccc2)(C4)C3)CC1` [Example E2, 1-(4-aminocyclohexyl)-3-(3-phenyladamantan-1-yl)urea], the half-maximal effective concentration (EC50) in series [1] came out at 0.87 µM; in series [2], 0.61 µM. The compound also came in with a CC50 in series [3] of 12.6 µM.

In the case of `O=C(NC12CC3CC(C1)CC(c1ccccc1)(C3)C2)C1CCNCC1` [Example E3, N-(3-phenyladamantan-1-yl)piperidine-4-carboxamide], the EC50 in series [1] is over 1 µM; in series [2], 0.27 µM. The same compound came in with a CC50 in series [3] of 36.3 µM.
